We go through 13 compounds from ChEMBL document CHEMBL1201862, “PubChem BioAssay data set” (2004).

Each structure is given as a SMILES string.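 48-hour exposure; five concentrations; linearly interpolated endpoints. GI50 is the concentration that inhibits growth by half.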 Activity calls are given as the source filed them. Rule as the data show it: active = GI50 up to about 1.1 µM and inactive = higher. A value given as a limit tells only on which side of the number the result lay.

Among the test systems are UO-31; OVCAR-5; SK-OV-3; IGROV-1; HOP-92; KM12; SF-539; LOX IMVI; HOP-62; RXF 393; SN12C; SF-295; SK-MEL-28; MDA-MB-435; T47D; HCT-15; SNB-75; Hs-578T.
Common to all, as to test: NCI-60 cell line screen, 48 h

As for `COC(=O)CC(=O)OSc1ccccc1`, the GI50 in the experiment on UO-31 is 12.2 µM (inactive); with OVCAR-5, 45 µM (inactive); in the experiment with SK-OV-3 it was 21.1 µM (inactive); in the experiment on IGROV-1, 7.71 µM (inactive); in the experiment on HOP-92, 17.7 µM (inactive); with KM12, 25.5 µM (inactive). The GI50 was 12.3 µM (inactive) in the experiment on SF-539; 12.6 µM (inactive) in the experiment with LOX IMVI; 22.4 µM (inactive) in the experiment on HOP-62; 10.4 µM (inactive) in the experiment with RXF 393; 12.9 µM (inactive) in the experiment with SN12C; 27.5 µM (inactive) in the experiment with SF-295.
For the compound `CN1CCCOC(c2ccc([N+](=O)[O-])cc2)O1` (stereo not given), the GI50 in the experiment on UO-31, in the experiment with OVCAR-5, in the experiment with SK-MEL-28, in the experiment on SK-OV-3, in the experiment on IGROV-1 and in the experiment with HOP-92 was > 100 µM (inactive) each time. Also, the GI50 in the experiment with MDA-MB-435, with KM12, with SF-539, in the experiment on LOX IMVI, in the experiment on T47D and with HOP-62 was > 100 µM (inactive) each time. Moreover, the GI50 in the experiment on HCT-15 was more than 100 µM; in the experiment with SNB-75, > 100 µM (inactive); in the experiment on RXF 393, > 100 µM (inactive); with SN12C it was > 100 µM (inactive); with SF-295 it was > 100 µM (inactive).
Turning to `COc1ccc2c(c1)CC[C@@H]1[C@@H]2CC[C@]2(C)C(=O)/C(=C/c3ccc(O)c(OC)c3)C[C@@H]12`, the GI50 in the experiment with UO-31 is 71 µM (inactive); in the experiment with OVCAR-5, 76 µM (inactive); in the experiment with SK-MEL-28, 52.1 µM (inactive); in the experiment with SK-OV-3 it was > 100 µM (inactive); with IGROV-1 it was 63.8 µM (inactive); in the experiment on HOP-92, > 100 µM (inactive). Further, the GI50 is 32 µM (inactive) in the experiment on MDA-MB-435; 36.9 µM (inactive) in the experiment with LOX IMVI; 96.6 µM (inactive) with T47D; 62.7 µM (inactive) in the experiment on HOP-62; 28.3 µM in the experiment with HCT-15; 41.5 µM (inactive) with RXF 393. Besides, the GI50 in the experiment on SF-295 was 55.6 µM (inactive).
For `CC1=C(C#N)c2nc3ccccc3n2C(=O)C1(C)CCO` (stereo not given), the GI50 in the experiment with UO-31, with OVCAR-5, in the experiment on SK-MEL-28, in the experiment on SK-OV-3, in the experiment on IGROV-1 and in the experiment on HOP-92 was > 100 µM (inactive) in each case. Also, the GI50 in the experiment on MDA-MB-435 was > 100 µM (inactive); with SF-539, > 100 µM (inactive); in the experiment on LOX IMVI, > 100 µM (inactive); in the experiment with HOP-62, > 100 µM (inactive); with HCT-15, more than 100 µM; in the experiment on SNB-75, > 100 µM (inactive). Besides, the GI50 with RXF 393, with SN12C, with Hs-578T and in the experiment with SF-295 was > 100 µM (inactive) throughout.
For the compound `CC(CC(C)[C@H]1CCC2[C@H]3C(CC[C@@]21C)[C@@]1(C)CCC(O)C[C@H]1C[C@@H]3O)C(=O)O` (stereo not given in full), the GI50 is 66.2 µM (inactive) in the experiment on UO-31; > 100 µM (inactive) with OVCAR-5; > 100 µM (inactive) in the experiment with SK-MEL-28; > 100 µM (inactive) in the experiment on IGROV-1; > 100 µM (inactive) in the experiment with HOP-92; > 100 µM (inactive) in the experiment on MDA-MB-435. For the same compound, the GI50 with KM12 was > 100 µM (inactive); in the experiment with SF-539, > 100 µM (inactive); in the experiment on LOX IMVI it was > 100 µM (inactive); in the experiment on T47D it was > 100 µM (inactive); with HOP-62, > 100 µM (inactive); in the experiment on HCT-15 it was more than 100 µM. In addition, the GI50 in the experiment on SNB-75, with RXF 393 and in the experiment on SN12C was > 100 µM (inactive) in each case.
For the compound `O=C1O[C@H](c2ccc3c(c2)OCO3)[C@H]2CO[C@@H](c3ccc4c(c3)OCO4)[C@@H]12`, the GI50 in the experiment on UO-31, in the experiment with OVCAR-5, in the experiment on SK-MEL-28, in the experiment on SK-OV-3, in the experiment on IGROV-1 and in the experiment with HOP-92 was > 100 µM (inactive) in each case. The GI50 with MDA-MB-435 was > 100 µM (inactive); with KM12 it was > 100 µM (inactive); in the experiment with SF-539 it was > 100 µM (inactive); in the experiment on LOX IMVI, > 100 µM (inactive); with HOP-62, > 100 µM (inactive); in the experiment with HCT-15, more than 100 µM. Besides, the GI50 in the experiment with RXF 393 is > 100 µM (inactive); with SN12C it was > 100 µM (inactive); with Hs-578T, > 100 µM (inactive); in the experiment on SF-295, 60.1 µM (inactive).
On to `CSc1nncc2[nH]c(C)nc12`, for which the GI50 in the experiment with UO-31, in the experiment with OVCAR-5, with SK-MEL-28, in the experiment with SK-OV-3, with IGROV-1 and with MDA-MB-435 was > 100 µM (inactive) each time. The GI50 with KM12 is > 100 µM (inactive); in the experiment with SF-539 it was > 100 µM (inactive); in the experiment on LOX IMVI it was > 100 µM (inactive); with T47D it was > 100 µM (inactive); with HOP-62, > 100 µM (inactive); in the experiment with HCT-15, more than 100 µM. For the same compound, the GI50 with SNB-75, with SN12C and with SF-295 was > 100 µM (inactive) in each case.
As to `CS/C1=C(\c2ccc(C)cc2)N(c2ccccc2)C(=O)C(=O)N(c2ccccc2)/C(c2ccc(C)cc2)=C(/SC)SS1`, the GI50 with UO-31, in the experiment on OVCAR-5, in the experiment with SK-MEL-28, in the experiment with IGROV-1, in the experiment with HOP-92 and in the experiment with MDA-MB-435 was > 100 µM (inactive) in each case. Besides, the GI50 in the experiment with SF-539 was > 100 µM (inactive); with LOX IMVI, > 100 µM (inactive); with T47D it was > 100 µM (inactive); with HOP-62 it was > 100 µM (inactive); in the experiment with HCT-15 it was more than 100 µM; with SNB-75, > 100 µM (inactive). Besides, the GI50 with SN12C and with SF-295 was > 100 µM (inactive) throughout.
As for `C=CCN1C(=O)/C(=C/c2ccco2)N=C1SC1OC(COC(C)=O)C(OC(C)=O)C(OC(C)=O)C1OC(C)=O` (stereo not given), the GI50 is > 100 µM (inactive) in the experiment with OVCAR-5; > 100 µM (inactive) in the experiment with SK-MEL-28; > 100 µM (inactive) in the experiment with SK-OV-3; > 100 µM (inactive) in the experiment with IGROV-1; 72.9 µM (inactive) in the experiment on HOP-92; > 100 µM (inactive) in the experiment on MDA-MB-435. Further, the GI50 in the experiment with KM12 is > 100 µM (inactive); in the experiment with SF-539 it was > 100 µM (inactive); in the experiment with LOX IMVI, > 100 µM (inactive); with HOP-62 it was > 100 µM (inactive); in the experiment with HCT-15, 88.1 µM; in the experiment with SNB-75, > 100 µM (inactive). Besides, the GI50 in the experiment with RXF 393 is 44 µM (inactive); in the experiment on SF-295 it was > 100 µM (inactive).
Take `CCn1nc(C)c2c1C(=O)NCC(=O)N2`: the GI50 in the experiment on UO-31, in the experiment on OVCAR-5, in the experiment with SK-MEL-28, with SK-OV-3, with IGROV-1 and in the experiment on HOP-92 was > 100 µM (inactive) in each case. The GI50 in the experiment on MDA-MB-435 was > 100 µM (inactive); with KM12, > 100 µM (inactive); with SF-539, > 100 µM (inactive); in the experiment with HCT-15 it was more than 100 µM; in the experiment with SNB-75, > 100 µM (inactive); with RXF 393, > 100 µM (inactive). Besides, the GI50 in the experiment with SN12C, in the experiment with Hs-578T and with SF-295 was > 100 µM (inactive) in each case.
Consider `CSC1=N/C(=C\c2ccc(C)cc2)C(=O)N1CN1CCCCC1`, for which the GI50 with UO-31 is 37.2 µM (inactive); in the experiment with OVCAR-5, > 100 µM (inactive); with SK-MEL-28, > 100 µM (inactive); in the experiment on SK-OV-3, > 100 µM (inactive); in the experiment with IGROV-1 it was 46.6 µM (inactive); with HOP-92, 67.3 µM (inactive). For the same compound, the GI50 in the experiment on MDA-MB-435 is > 100 µM (inactive); in the experiment on KM12 it was > 100 µM (inactive); with LOX IMVI, 34.3 µM (inactive); with HOP-62 it was > 100 µM (inactive); in the experiment with HCT-15 it was 73.8 µM; in the experiment on SNB-75, 69.5 µM (inactive). The GI50 with SN12C is > 100 µM (inactive); in the experiment on Hs-578T it was 56.5 µM (inactive); in the experiment with SF-295, > 100 µM (inactive).
In the case of `CC(C)Oc1c(O)c2c3c(oc(=O)n3C=CC2c2ccccc2F)c1OC(C)C` (stereo not given), the GI50 in the experiment on UO-31 is 24.4 µM (inactive); in the experiment on OVCAR-5, 20 µM (inactive); in the experiment on SK-MEL-28 it was 53.8 µM (inactive); in the experiment with SK-OV-3 it was > 100 µM (inactive); in the experiment with IGROV-1 it was 44.8 µM (inactive); in the experiment on HOP-92 it was 28.1 µM (inactive). The GI50 in the experiment on MDA-MB-435 is 26.3 µM (inactive); in the experiment on KM12, 29.1 µM (inactive); with SF-539, 22.5 µM (inactive); with LOX IMVI, 17.5 µM (inactive); in the experiment on HOP-62 it was 27.5 µM (inactive); in the experiment with HCT-15 it was 33 µM. Also, the GI50 in the experiment with SNB-75 is 20.7 µM (inactive); in the experiment with RXF 393, 21 µM (inactive); in the experiment on SN12C, 38.4 µM (inactive); in the experiment on Hs-578T, 75.7 µM (inactive); in the experiment with SF-295 it was 25.6 µM (inactive).
Regarding `O=C(/C=C/c1ccccc1O)/C=C/c1ccccc1O`, the GI50 with UO-31 is 1.83 µM (inactive); with OVCAR-5 it was 1.49 µM (inactive); in the experiment on SK-MEL-28, 1.81 µM (inactive); in the experiment on SK-OV-3 it was 1.86 µM (inactive); in the experiment on IGROV-1, 1.64 µM (inactive); in the experiment with HOP-92 it was 1.39 µM (inactive). The GI50 with MDA-MB-435 is 1.95 µM (inactive); with KM12, 1.06 µM (active); in the experiment on SF-539, 1.55 µM (inactive); in the experiment with LOX IMVI, 0.252 µM (active); in the experiment on HOP-62 it was 2.26 µM (inactive); in the experiment with HCT-15, 1.45 µM. The GI50 is 3.9 µM (inactive) in the experiment with SNB-75, 1.72 µM (inactive) in the experiment on SN12C, 2.7 µM (inactive) with Hs-578T and 1.67 µM (inactive) in the experiment with SF-295.
